Test results from ChEMBL document CHEMBL1155583, “Steroidal saponins from Dracaena surculosa” (J Nat Prod, 2000).
Converted amounts (≈) assume the structure as drawn.

Test system: HL-60
Test: Cytotoxicity against human HL60 cells by MTT assay
Format: functional, cell-based

SMILES	IC50
C[C@H]1CC[C@@]2(OC1)O[C@H]1C[C@H]3[C@@H]4CC=C5C[C@@H](O)C[C@@H](O[C@@H]6O[C@H](C)[C@H](O)[C@H](O)[C@H]6O[C@@H]6O[C@@H](C)[C@H](O)[C@@H](O)[C@H]6O)[C@]5(C)[C@H]4CC[C@]3(C)[C@H]1[C@@H]2C	8.7 µg/mL (≈ 12 µM)
C[C@@H]1CC[C@@]2(OC1)O[C@H]1C[C@H]3[C@@H]4CC=C5C[C@@H](O[C@@H]6O[C@H](CO)[C@@H](O)[C@H](O)[C@H]6O[C@@H]6O[C@@H](C)[C@H](O)[C@@H](O)[C@H]6O)CC[C@]5(C)[C@H]4CC[C@]3(C)[C@@]1(O)[C@@H]2C	5.2 µg/mL (≈ 7.04 µM)
C[C@@H]1CC[C@@]2(OC1)O[C@H]1C[C@H]3[C@@H]4CC=C5C[C@@H](O[C@@H]6O[C@H](CO)[C@@H](O[C@@H]7O[C@@H](C)[C@H](O)[C@@H](O)[C@H]7O)[C@H](O)[C@H]6O[C@@H]6O[C@@H](C)[C@H](O)[C@@H](O)[C@H]6O)CC[C@]5(C)[C@H]4CC[C@]3(C)[C@@]1(O)[C@@H]2C	4.2 µg/mL (≈ 4.75 µM)
